PMC9320910, “Inhibition of Microtubule Affinity Regulating Kinase 4 by Metformin: Exploring the Neuroprotective Potential of Antidiabetic Drug through Spectroscopic and Computational Approaches” (Molecules, 2022)

Target: T1, Microtubule affinity regulating kinase 4 (MARK4) (Homo sapiens, UniProt Q96L34)
T1 sequence (Q96L34 1-752): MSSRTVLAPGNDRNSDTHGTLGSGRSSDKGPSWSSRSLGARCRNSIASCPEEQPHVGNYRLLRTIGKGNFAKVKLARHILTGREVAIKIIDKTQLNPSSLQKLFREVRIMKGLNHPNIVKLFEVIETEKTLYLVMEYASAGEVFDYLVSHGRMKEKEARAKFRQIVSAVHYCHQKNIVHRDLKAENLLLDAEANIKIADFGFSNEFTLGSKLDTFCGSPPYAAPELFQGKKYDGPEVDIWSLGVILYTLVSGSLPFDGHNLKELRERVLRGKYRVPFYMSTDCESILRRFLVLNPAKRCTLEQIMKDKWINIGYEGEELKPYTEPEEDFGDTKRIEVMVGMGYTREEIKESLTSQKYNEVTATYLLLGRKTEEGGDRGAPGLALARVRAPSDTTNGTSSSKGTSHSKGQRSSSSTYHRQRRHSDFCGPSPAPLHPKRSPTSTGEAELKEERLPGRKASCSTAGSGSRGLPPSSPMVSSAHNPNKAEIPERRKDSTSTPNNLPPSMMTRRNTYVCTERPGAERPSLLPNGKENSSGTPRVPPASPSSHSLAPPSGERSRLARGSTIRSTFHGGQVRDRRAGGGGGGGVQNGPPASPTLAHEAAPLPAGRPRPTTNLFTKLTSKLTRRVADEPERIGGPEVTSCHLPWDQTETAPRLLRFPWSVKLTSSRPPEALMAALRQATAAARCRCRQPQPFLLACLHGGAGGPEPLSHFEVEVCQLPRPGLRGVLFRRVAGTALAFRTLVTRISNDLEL
Assay: intrinsic fluorescence quenching (modified Stern-Volmer); supported by malachite green ATPase assay of MARK4 (IC50 =[…])
Type: binding

Q: With `CN(C)C(=N)N=C(N)N` [Mtf, N,N-dimethylbiguanide] as the compound, how does the Kd read?
A: 1670 nM
